The text below walks through data of PMC10302633 (Marine Drugs, 2023).

Each structure is given as a SMILES string. pIC50: −log10 of the molar value.

Experiment [1] addresses rat α7 nAChRs (Rattus norvegicus, UniProt Q05941). The experiment in a line: cell-based. Format: cell-based.
The target of experiment [2] is human α7 nAChRs (Homo sapiens, UniProt P36544). As to the kind of experiment: cell-based.
The target of experiment [3] is rat α9α10 nAChRs (Rattus norvegicus, UniProt P43144+Q9JLB5). It is filed as cell-based.
rat α9α10 nAChRs, sequence (P43144 26-479 limits assumed): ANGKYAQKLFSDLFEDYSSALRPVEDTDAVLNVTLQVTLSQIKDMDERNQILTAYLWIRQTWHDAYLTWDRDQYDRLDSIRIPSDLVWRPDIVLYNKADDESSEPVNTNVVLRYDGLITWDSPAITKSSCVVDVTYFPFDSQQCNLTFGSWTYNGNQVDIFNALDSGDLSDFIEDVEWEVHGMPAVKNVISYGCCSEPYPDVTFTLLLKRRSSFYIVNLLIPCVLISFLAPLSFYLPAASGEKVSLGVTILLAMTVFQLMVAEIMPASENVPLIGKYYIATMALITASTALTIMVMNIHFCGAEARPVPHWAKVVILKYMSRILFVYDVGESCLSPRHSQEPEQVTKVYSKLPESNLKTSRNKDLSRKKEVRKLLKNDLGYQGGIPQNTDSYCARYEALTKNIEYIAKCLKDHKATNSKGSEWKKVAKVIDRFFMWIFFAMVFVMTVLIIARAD
rat α9α10 nAChRs, sequence (Q9JLB5 25-447 limits assumed): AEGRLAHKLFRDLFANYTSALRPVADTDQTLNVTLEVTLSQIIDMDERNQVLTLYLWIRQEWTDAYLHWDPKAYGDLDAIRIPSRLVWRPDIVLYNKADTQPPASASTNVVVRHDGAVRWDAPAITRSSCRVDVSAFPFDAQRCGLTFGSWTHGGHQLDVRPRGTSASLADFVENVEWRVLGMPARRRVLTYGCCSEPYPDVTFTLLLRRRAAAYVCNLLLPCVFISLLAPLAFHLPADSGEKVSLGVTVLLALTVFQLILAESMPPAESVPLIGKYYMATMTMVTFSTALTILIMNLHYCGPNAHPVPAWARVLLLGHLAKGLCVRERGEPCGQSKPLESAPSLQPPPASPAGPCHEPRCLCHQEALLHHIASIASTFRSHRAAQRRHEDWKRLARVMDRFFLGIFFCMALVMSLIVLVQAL
Experiment [4] has as its target human α9α10 nAChRs (Homo sapiens, UniProt Q9GZZ6+Q9UGM1). Format: cell-based.

rat α7 nAChRs, sequence (Q05941 23-502 limits assumed): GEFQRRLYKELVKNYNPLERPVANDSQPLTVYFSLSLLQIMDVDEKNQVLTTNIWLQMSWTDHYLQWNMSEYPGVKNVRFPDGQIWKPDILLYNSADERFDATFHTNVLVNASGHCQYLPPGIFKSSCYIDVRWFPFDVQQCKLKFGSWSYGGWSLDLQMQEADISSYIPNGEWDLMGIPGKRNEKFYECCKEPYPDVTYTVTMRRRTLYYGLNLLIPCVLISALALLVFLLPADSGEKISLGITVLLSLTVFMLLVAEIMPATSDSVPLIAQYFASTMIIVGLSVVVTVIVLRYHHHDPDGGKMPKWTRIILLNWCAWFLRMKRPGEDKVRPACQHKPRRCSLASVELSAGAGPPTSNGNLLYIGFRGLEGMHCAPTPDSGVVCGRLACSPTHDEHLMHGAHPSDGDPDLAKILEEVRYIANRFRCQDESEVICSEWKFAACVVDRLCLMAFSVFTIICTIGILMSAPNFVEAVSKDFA
human α7 nAChRs, sequence (P36544 23-502 limits assumed): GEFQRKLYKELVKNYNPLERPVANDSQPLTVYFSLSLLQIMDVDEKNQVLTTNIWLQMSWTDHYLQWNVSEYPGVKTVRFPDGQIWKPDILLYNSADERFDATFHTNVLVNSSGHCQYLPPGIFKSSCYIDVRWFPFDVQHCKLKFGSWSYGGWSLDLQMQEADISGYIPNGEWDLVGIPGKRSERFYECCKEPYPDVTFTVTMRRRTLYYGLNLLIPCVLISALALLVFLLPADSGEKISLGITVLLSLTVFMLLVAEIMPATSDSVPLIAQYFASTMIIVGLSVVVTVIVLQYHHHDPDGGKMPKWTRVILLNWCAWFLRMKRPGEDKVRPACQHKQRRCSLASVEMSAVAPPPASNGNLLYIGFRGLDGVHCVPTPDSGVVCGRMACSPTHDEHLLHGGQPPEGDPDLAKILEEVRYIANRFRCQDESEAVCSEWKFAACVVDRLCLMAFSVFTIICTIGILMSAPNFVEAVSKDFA
human α9α10 nAChRs, sequence (Q9UGM1 26-479 limits assumed): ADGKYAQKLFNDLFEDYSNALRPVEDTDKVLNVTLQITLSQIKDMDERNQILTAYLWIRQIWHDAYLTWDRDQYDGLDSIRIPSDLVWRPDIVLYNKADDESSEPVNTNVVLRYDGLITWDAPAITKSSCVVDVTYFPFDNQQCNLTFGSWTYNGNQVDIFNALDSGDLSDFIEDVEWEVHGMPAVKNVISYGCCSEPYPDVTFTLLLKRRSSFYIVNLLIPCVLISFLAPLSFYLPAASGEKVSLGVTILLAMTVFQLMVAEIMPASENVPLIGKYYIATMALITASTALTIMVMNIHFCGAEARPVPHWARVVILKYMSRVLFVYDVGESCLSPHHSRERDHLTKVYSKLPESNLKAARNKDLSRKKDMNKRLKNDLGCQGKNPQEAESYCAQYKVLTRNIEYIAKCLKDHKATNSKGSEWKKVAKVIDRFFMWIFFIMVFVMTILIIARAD
human α9α10 nAChRs, sequence (Q9GZZ6 25-450 limits assumed): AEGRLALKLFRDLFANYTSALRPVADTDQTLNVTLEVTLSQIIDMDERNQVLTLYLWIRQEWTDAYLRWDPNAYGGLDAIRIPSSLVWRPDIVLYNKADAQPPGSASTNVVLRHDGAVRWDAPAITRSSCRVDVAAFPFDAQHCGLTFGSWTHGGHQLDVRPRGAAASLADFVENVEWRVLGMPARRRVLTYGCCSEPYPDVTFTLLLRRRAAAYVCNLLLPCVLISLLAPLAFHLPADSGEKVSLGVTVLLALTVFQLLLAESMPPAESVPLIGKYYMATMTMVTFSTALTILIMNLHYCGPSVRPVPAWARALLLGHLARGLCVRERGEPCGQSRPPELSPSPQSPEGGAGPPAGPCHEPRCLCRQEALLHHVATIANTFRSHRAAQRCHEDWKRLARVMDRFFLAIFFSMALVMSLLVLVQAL

Usually pIC50 stands for the IC50 on a negative log10 scale, so that one unit is a factor of ten. High values mean a low IC50, low ones a high IC50. Turning to `N=C(N)NCCC[C@H](NC(=O)[C@@H]1CSSC[C@@H]2NC(=O)[C@@H](NC(=O)CN)CSSC[C@H](NC(=O)[C@H](CCCNC(=N)N)NC(=O)[C@@H]3CCCN3C(=O)[C@H](CC(=O)O)NC(=O)[C@H](CO)NC2=O)C(=O)N[C@@H](CCCNC(=N)N)C(=O)N[C@@H](Cc2ccc(O)cc2)C(=O)N[C@@H](CCCNC(=N)N)C(=O)N1)C(=O)O` [RgIA], the “Hill Slope” value is given as 0.8 (0.4–1.1) in experiment [1], 0.7 (0.4–1.0) in experiment [2], 0.8 (0.7–0.9) in experiment [3] and 0.5 (0.4–0.6) in experiment [4]. Further, the pIC50 is 5.27 in experiment [1] and 5.34 in experiment [2]. In experiment [1], the “inhibition of ACh-evoked currents” value is on record as 60%.
